{"source": "ChEMBL document CHEMBL1208702", "about": "“Use of 2-[(18)F]fluoroethylazide for the Staudinger ligation - Preparation and characterisation of GABA(A) receptor binding 4-quinolones” (Bioorg Med Chem Lett, 2010)", "key": {"Heart [1]": {"system": "Heart", "experiment": "Biodistribution in iv dosed Sprague-Dawley rats heart after 0.5 min by gamma counter", "assay_type": "ADME, organism-based", "settings": "rat, in vivo"}, "[2]": {"experiment": "Biodistribution in iv dosed Sprague-Dawley rats stomach after 0.5 min by gamma counter", "assay_type": "ADME, organism-based", "settings": "rat, in vivo"}, "[3]": {"experiment": "Drug uptake in high GABAA expression areas of Wistar rat brain prefrontal cortex at 0.1 MBq/ml after 60 mins by autoradiographic analysis", "assay_type": "ADME, tissue-based", "settings": "in vivo, 1 h"}, "Blood [4]": {"system": "Blood", "experiment": "Biodistribution in iv dosed Sprague-Dawley rats blood after 10 mins by gamma counter", "assay_type": "ADME, organism-based", "settings": "rat, in vivo"}, "Lung [5]": {"system": "Lung", "experiment": "Biodistribution in iv dosed Sprague-Dawley rats lung after 10 mins by gamma counter", "assay_type": "ADME, organism-based", "settings": "rat, in vivo"}, "Heart [6]": {"system": "Heart", "experiment": "Biodistribution in iv dosed Sprague-Dawley rats heart after 2 mins by gamma counter", "assay_type": "ADME, organism-based", "settings": "rat, in vivo"}, "Spleen [7]": {"system": "Spleen", "experiment": "Biodistribution in iv dosed Sprague-Dawley rats spleen after 60 mins by gamma counter", "assay_type": "ADME, organism-based", "settings": "rat, in vivo, 1 h"}, "Kidney [8]": {"system": "Kidney", "experiment": "Biodistribution in iv dosed Sprague-Dawley rats kidneys after 30 mins by gamma counter", "assay_type": "ADME, organism-based", "settings": "rat, in vivo, 0.5 h"}, "Brain [9]": {"system": "Brain", "experiment": "Biodistribution in iv dosed Sprague-Dawley rats brain after 2 mins by gamma counter", "assay_type": "ADME, organism-based", "settings": "rat, in vivo"}, "[10]": {"experiment": "Biodistribution in iv dosed Sprague-Dawley rats large intestine after 2 mins by gamma counter", "assay_type": "ADME, organism-based", "settings": "rat, in vivo"}, "Bone [11]": {"system": "Bone", "experiment": "Biodistribution in iv dosed Sprague-Dawley rats bone after 0.5 min by gamma counter", "assay_type": "ADME, organism-based, Bone element", "settings": "rat, in vivo"}, "Blood [12]": {"system": "Blood", "experiment": "Biodistribution in iv dosed Sprague-Dawley rats blood after 0.5 min by gamma counter", "assay_type": "ADME, organism-based", "settings": "rat, in vivo"}, "Muscle tissue [13]": {"system": "Muscle tissue", "experiment": "Biodistribution in iv dosed Sprague-Dawley rats muscle after 0.5 min by gamma counter", "assay_type": "ADME, organism-based", "settings": "rat, in vivo"}, "Kidney [14]": {"system": "Kidney", "experiment": "Biodistribution in iv dosed Sprague-Dawley rats kidneys after 0.5 min by gamma counter", "assay_type": "ADME, organism-based", "settings": "rat, in vivo"}, "Spleen [15]": {"system": "Spleen", "experiment": "Biodistribution in iv dosed Sprague-Dawley rats spleen after 2 mins by gamma counter", "assay_type": "ADME, organism-based", "settings": "rat, in vivo"}, "[16]": {"experiment": "Biodistribution in iv dosed Sprague-Dawley rats bladder and urine after 0.5 min by gamma counter", "assay_type": "ADME, organism-based", "settings": "rat, in vivo"}, "Muscle tissue [17]": {"system": "Muscle tissue", "experiment": "Biodistribution in iv dosed Sprague-Dawley rats muscle after 10 mins by gamma counter", "assay_type": "ADME, organism-based", "settings": "rat, in vivo"}, "Brain [18]": {"system": "Brain", "experiment": "Biodistribution in iv dosed Sprague-Dawley rats brain after 30 mins by gamma counter", "assay_type": "ADME, organism-based", "settings": "rat, in vivo, 0.5 h"}, "Lung [19]": {"system": "Lung", "experiment": "Biodistribution in iv dosed Sprague-Dawley rats lung after 2 mins by gamma counter", "assay_type": "ADME, organism-based", "settings": "rat, in vivo"}, "[20]": {"experiment": "Biodistribution in iv dosed Sprague-Dawley rats small intestine after 2 mins by gamma counter", "assay_type": "ADME, organism-based", "settings": "rat, in vivo"}, "[21]": {"experiment": "Biodistribution in iv dosed Sprague-Dawley rats bladder and urine after 30 mins by gamma counter", "assay_type": "ADME, organism-based", "settings": "rat, in vivo, 0.5 h"}, "[22]": {"experiment": "Drug uptake in Wistar rat brain prefrontal cortex olfactory tubercles at 0.1 MBq/ml after 60 mins by autoradiographic analysis", "assay_type": "ADME, tissue-based", "settings": "in vivo, 1 h"}, "Lung [23]": {"system": "Lung", "experiment": "Biodistribution in iv dosed Sprague-Dawley rats lung after 30 mins by gamma counter", "assay_type": "ADME, organism-based", "settings": "rat, in vivo, 0.5 h"}, "[24]": {"experiment": "Biodistribution in iv dosed Sprague-Dawley rats bladder and urine after 2 mins by gamma counter", "assay_type": "ADME, organism-based", "settings": "rat, in vivo"}, "[25]": {"experiment": "Drug uptake in Wistar rat brain thalamus/striatum cortex at 0.1 MBq/ml after 60 mins by autoradiographic analysis", "assay_type": "ADME, tissue-based", "settings": "in vivo, 1 h"}, "[26]": {"experiment": "Biodistribution in iv dosed Sprague-Dawley rats fat after 2 mins by gamma counter", "assay_type": "ADME, organism-based, Adipose tissue", "settings": "rat, in vivo"}, "Spleen [27]": {"system": "Spleen", "experiment": "Biodistribution in iv dosed Sprague-Dawley rats spleen after 0.5 min by gamma counter", "assay_type": "ADME, organism-based", "settings": "rat, in vivo"}, "[28]": {"experiment": "Biodistribution in iv dosed Sprague-Dawley rats large intestine after 10 mins by gamma counter", "assay_type": "ADME, organism-based", "settings": "rat, in vivo"}, "Blood [29]": {"system": "Blood", "experiment": "Biodistribution in iv dosed Sprague-Dawley rats blood after 2 mins by gamma counter", "assay_type": "ADME, organism-based", "settings": "rat, in vivo"}, "Bone [30]": {"system": "Bone", "experiment": "Biodistribution in iv dosed Sprague-Dawley rats bone after 2 mins by gamma counter", "assay_type": "ADME, organism-based, Bone element", "settings": "rat, in vivo"}, "Brain [31]": {"system": "Brain", "experiment": "Biodistribution in iv dosed Sprague-Dawley rats brain after 0.5 min by gamma counter", "assay_type": "ADME, organism-based", "settings": "rat, in vivo"}, "Bone [32]": {"system": "Bone", "experiment": "Biodistribution in iv dosed Sprague-Dawley rats bone after 10 mins by gamma counter", "assay_type": "ADME, organism-based, Bone element", "settings": "rat, in vivo"}, "[33]": {"experiment": "Biodistribution in iv dosed Sprague-Dawley rats fat after 60 mins by gamma counter", "assay_type": "ADME, organism-based, Adipose tissue", "settings": "rat, in vivo, 1 h"}, "Blood [34]": {"system": "Blood", "experiment": "Biodistribution in iv dosed Sprague-Dawley rats blood after 60 mins by gamma counter", "assay_type": "ADME, organism-based", "settings": "rat, in vivo, 1 h"}, "Liver": {"system": "Liver", "experiment": "Biodistribution in iv dosed Sprague-Dawley rats liver after 2 mins by gamma counter", "assay_type": "ADME, organism-based", "settings": "rat, in vivo"}, "Bone [35]": {"system": "Bone", "experiment": "Biodistribution in iv dosed Sprague-Dawley rats bone after 60 mins by gamma counter", "assay_type": "ADME, organism-based, Bone element", "settings": "rat, in vivo, 1 h"}, "Blood [36]": {"system": "Blood", "experiment": "Biodistribution in iv dosed Sprague-Dawley rats blood after 30 mins by gamma counter", "assay_type": "ADME, organism-based", "settings": "rat, in vivo, 0.5 h"}, "Kidney [37]": {"system": "Kidney", "experiment": "Biodistribution in iv dosed Sprague-Dawley rats kidneys after 10 mins by gamma counter", "assay_type": "ADME, organism-based", "settings": "rat, in vivo"}}}
{"smiles": "O=C(NCC[18F])c1c[nH]c2ccc(Cc3ccccc3)cc2c1=O", "values": [{"measurement": "Drug uptake", "setting": "Heart [1]", "value": 2, "unit": "%ID"}, {"measurement": "Drug uptake", "setting": "[2]", "value": 0.8, "unit": "%ID"}, {"measurement": "Drug uptake", "setting": "[3]", "value": 78, "unit": "%"}, {"measurement": "Drug uptake", "setting": "Blood [4]", "value": 2.8, "unit": "%ID"}, {"measurement": "Drug uptake", "setting": "Lung [5]", "value": 0.6, "unit": "%ID"}, {"measurement": "Drug uptake", "setting": "Heart [6]", "value": 1.1, "unit": "%ID"}, {"measurement": "Drug uptake", "setting": "Spleen [7]", "value": 0, "unit": "%ID"}, {"measurement": "Drug uptake", "setting": "Kidney [8]", "value": 1.5, "unit": "%ID"}, {"measurement": "Drug uptake", "setting": "Brain [9]", "value": 0.1, "unit": "%ID"}, {"measurement": "Drug uptake", "setting": "[10]", "value": 1.3, "unit": "%ID"}, {"measurement": "Drug uptake", "setting": "Bone [11]", "value": 3, "unit": "%ID"}, {"measurement": "Drug uptake", "setting": "Blood [12]", "value": 8.7, "unit": "%ID"}, {"measurement": "Drug uptake", "setting": "Muscle tissue [13]", "value": 56.1, "unit": "%ID"}, {"measurement": "Drug uptake", "setting": "Kidney [14]", "value": 4, "unit": "%ID"}, {"measurement": "Drug uptake", "setting": "Spleen [15]", "value": 0.3, "unit": "%ID"}, {"measurement": "Drug uptake", "setting": "[16]", "value": 0.2, "unit": "%ID"}, {"measurement": "Drug uptake", "setting": "Muscle tissue [17]", "value": 27.2, "unit": "%ID"}, {"measurement": "Drug uptake", "setting": "Brain [18]", "value": 0.1, "unit": "%ID"}, {"measurement": "Drug uptake", "setting": "Lung [19]", "value": 1.5, "unit": "%ID"}, {"measurement": "Drug uptake", "setting": "[20]", "value": 7, "unit": "%ID"}, {"measurement": "Drug uptake", "setting": "[21]", "value": 4.2, "unit": "%ID"}, {"measurement": "Drug uptake", "setting": "[22]", "value": 60, "unit": "%"}, {"measurement": "Drug uptake", "setting": "Lung [23]", "value": 0.4, "unit": "%ID"}, {"measurement": "Drug uptake", "setting": "[24]", "value": 0, "unit": "%ID"}, {"measurement": "Drug uptake", "setting": "[25]", "value": 60, "unit": "%"}, {"measurement": "Drug uptake", "setting": "[26]", "value": 1.8, "unit": "%ID"}, {"measurement": "Drug uptake", "setting": "Spleen [27]", "value": 0.2, "unit": "%ID"}, {"measurement": "Drug uptake", "setting": "[28]", "value": 1.7, "unit": "%ID"}, {"measurement": "Drug uptake", "setting": "Blood [29]", "value": 4.2, "unit": "%ID"}, {"measurement": "Drug uptake", "setting": "Bone [30]", "value": 3, "unit": "%ID"}, {"measurement": "Drug uptake", "setting": "Brain [31]", "value": 0.1, "unit": "%ID"}, {"measurement": "Drug uptake", "setting": "Bone [32]", "value": 1.7, "unit": "%ID"}, {"measurement": "Drug uptake", "setting": "[33]", "value": 0.3, "unit": "%ID"}, {"measurement": "Drug uptake", "setting": "Blood [34]", "value": 0.7, "unit": "%ID"}, {"measurement": "Drug uptake", "setting": "Liver", "value": 28.5, "unit": "%ID"}, {"measurement": "Drug uptake", "setting": "Bone [35]", "value": 1.4, "unit": "%ID"}, {"measurement": "Drug uptake", "setting": "Blood [36]", "value": 1.5, "unit": "%ID"}, {"measurement": "Drug uptake", "setting": "Kidney [37]", "value": 2.1, "unit": "%ID"}]}
